Values quoted from earlier work, collected in patent US12458653B2, “Cannabis based therapeutic and method of use” (priority 2018, dated 2025).
Where two headings read alike, the source gives them in different places.

What was measured:
[1] = extensive liver metabolism
[2] = tested on: chemotherapy-induced nausea and vomiting; settings: versus available anti-emetic regimens

For `CCCCCc1cc(O)c2c(c1)OC(C)(C)[C@@H]1CCC(C)=C[C@@H]21` [Δ9-THC, delta-9 tetrahydrocannabinol], the “oral bioavailability of Δ9-THC” value [1] is listed as 4-12%, the half-life (frequent users) is listed as 120 to 312 h and the half-life (infrequent user) is listed as 31.2 h. For the same molecule, the “average plasma clearance rate” value (men) was 14.9 ± 3.7 L/h, the plasma clearance rate (naïve cannabis users) was “approximately 36 L/hour” and the plasma clearance rate (regular cannabis users) was 60 L/h. The “average plasma clearance rate” value (women) was 11.8 ± 3 L/h.
For `CCCCCc1cc(O)c2c(c1)OC(C)(C)[C@@H]1CCC(C)=C[C@@H]21` [Dronabinol], the “relief of chemotherapy-induced nausea and vomiting” value [2] is given as “little relief over available anti-emetic regimens”.
In the case of `CCCCCc1cc(O)c2c(c1)OC(C)(C)[C@@H]1CCC(CO)=C[C@@H]21` [11-OH-THC], the “peak concentration in the urine” value (after 3 hours, smoking approximately 27 mg of Δ9-THC) is given as 77.0 ± 329.7 ng/mL and the “peak concentration in the urine” value (within two hours after smoking approximately 27 mg of Δ9-THC in a cigarette) is given as 3.2 to 53.3 ng/mL.
In the case of `CCCCCc1cc(O)c2c(c1)OC(C)(C)[C@@H]1CCC(C(=O)O)=C[C@@H]21` [THC—COOH], the “peak concentration in the urine” value (after 4 hours, smoking approximately 27 mg of Δ9-THC) is listed as 179.4 ng/mL, the urinary excretion half-life (after seven days of monitoring) is listed as “approximately 30 hours” and the “time THC-COOH is detectable in plasma” value (after smoking a cigarette containing 16-34 mg of Δ9-THC) is listed as 2 to 7 days. For the same molecule, the urinary excretion half-life (after twelve days of monitoring) was 44 to 60 h, the “initial concentration of THC-COOH in serum” value (clinical study among 52 volunteers) was 14 to 49 ng/mL and the THC-COOH detection time (single chronic user) was 25 days.
